Results from ChEMBL document CHEMBL4699435, “Synthesis and biological screening of a library of macamides as TNF-alpha inhibitors” (RSC Med Chem, 2020).

Experiments:
[1] = Cytotoxicity against human THP-1 cells assessed as reduction in cell viability incubated for 72 hrs by MTT assay; format: cell-based
THP-1 [2] = assay: Inhibition of LPS-induced TNFalpha production in human THP-1 cells incubated for 2 hrs followed by LPS stimulation and measured after 12 hrs by ELISA; format: functional, cell-based
THP-1 [3] = assay: Potency index, ratio of IC50 of C87 to IC50 of compound for inhibition of LPS-induced TNFalpha production in human THP-1 cells incubated for 2 hrs followed by LPS stimulation and measured after 12 hrs by ELISA; format: functional
THP-1 [4] = assay: Potency index, ratio of IC50 of N-oleoyldopamine-macamide to IC50 of compound for inhibition of LPS-induced TNFalpha production in human THP-1 cells incubated for 2 hrs followed by LPS stimulation and measured after 12 hrs by ELISA; format: functional
THP-1 [5] = assay: Potency index, ratio of IC50 of N-(2-hydroxyethyl)-7Z,10Z,13Z,16Z-docosatetraenamide to IC50 of compound for inhibition of LPS-induced TNFalpha production in human THP-1 cells incubated for 2 hrs followed by LPS stimulation and measured after 12 hrs by ELISA; format: functional

Row | SMILES | CC50 at 72 h [1] | IC50 (THP-1 [2]) | Ratio IC50 (THP-1 [3]) | Ratio IC50 (THP-1 [4]) | Ratio IC50 (THP-1 [5])
1 | CCCCC/C=C\C/C=C\CCCCCCCC(=O)NCCCc1ccccc1 | 80.3 µM | 8.3 µM | – | – | –
2 | CCCCCCCC/C=C\CCCCCCCC(=O)NCCc1ccc(O)c(O)c1 [OLEOYL DOPAMINE] | > 100 µM | 3.54 µM | – | – | –
3 | CCCCC/C=C\C/C=C\CCCCCCCC(=O)OC(C)c1cc(C)cc(C)c1 (configuration not stated) | 90.1 µM | 0.009 µM | 12 | 200 | 200
4 | CCCCC/C=C\C/C=C\CCCCCCCC(=O)NC(C)c1ccc(CC)cc1 (configuration not stated) | 89.8 µM | 1.21 µM | – | – | –
5 | CCCCCCCC/C=C\CCCCCCCC(=O)NCc1ccccc1 | 97.3 µM | 15.2 µM | – | – | –
6 | CCCCC/C=C\C/C=C\CCCCCCCC(=O)NCCc1ccccc1 | 88.2 µM | 15.7 µM | – | – | –
7 | CCCCC/C=C\C/C=C\CCCCCCCC(=O)NC(C)c1ccc(Br)cc1 (configuration not stated) | 81.4 µM | 0.74 µM | – | – | –
8 | CCCCC/C=C\C/C=C\CCCCCCCC(=O)NC(C)(C)c1ccccc1 | 97.3 µM | 13.1 µM | – | – | –
9 | CCCCC/C=C\C/C=C\CCCCCCCC(=O)NC(C)c1cc(C)cc(C)c1 (configuration not stated) | 93.2 µM | 0.08 µM | – | – | –
10 | CCCCC/C=C\C/C=C\CCCCCCCC(=O)NC(C)C1CCCCC1 (configuration not stated) | 93.2 µM | 0.71 µM | – | – | –
11 | CCCCCCCCCCCCCCCCCC(=O)NCc1ccccc1 | 100 µM | 16.6 µM | – | – | –
12 | CCCCC/C=C\C/C=C\CCCCCCCC(=O)NC(CO)c1ccccc1 (configuration not stated) | 98 µM | 56.8 µM | – | – | –
13 | CCCCC/C=C\C/C=C\CCCCCCCC(=O)OCc1ccccc1 | 95.4 µM | 6.4 µM | – | – | –
14 | CCCCC/C=C\C/C=C\CCCCCCCC(=O)NC(C)C(C)(C)C (configuration not stated) | 94.7 µM | 1 µM | – | – | –
15 | CCCCCCCCCCCCCCCC(=O)NCc1ccccc1 | 100 µM | 43.1 µM | – | – | –
16 | CCCCCCCC(=O)NCc1ccccc1 | 100 µM | 58.7 µM | – | – | –
17 | CCCCC/C=C\C/C=C\CCCCCCCC(=O)NC(C)c1ccc(O)cc1 (configuration not stated) | 93.5 µM | 1.84 µM | – | – | –
18 | CCCCC/C=C\C/C=C\CCCCCCCC(=O)NNc1ccccc1 | 98.1 µM | 8.9 µM | – | – | –
19 | CCCCCCCC/C=C\CCCCCCCC(=O)O [OLEIC ACID] | 100 µM | 79 µM | – | – | –
20 | CCCCC/C=C\C/C=C\CCCCCCCC(=O)NC(C)C12CC3CC(CC(C3)C1)C2 (configuration not stated) | 90.9 µM | 0.78 µM | – | – | –
21 | CCCCC/C=C\C/C=C\CCCCCCCC(=O)NC(C)c1ccc(C)cc1 (configuration not stated) | 95 µM | 0.62 µM | – | – | –
22 | CCCCC/C=C\C/C=C\CCCCCCCC(=O)NC(C)c1cccc(C)c1 (configuration not stated) | 91.7 µM | 0.33 µM | – | – | –
23 | CCCCC/C=C\C/C=C\CCCCCCCC(=O)NCc1ccccc1 | 98.4 µM | 14.2 µM | – | – | –
24 | CCCCC/C=C\C/C=C\CCCCCCCC(=O)NC(CC)c1ccccc1 (configuration not stated) | 96.5 µM | 19.7 µM | – | – | –
25 | CCCCC/C=C\C/C=C\CCCCCCCC(=O)NC(C)c1ccccc1 (configuration not stated) [MALINAMIDE] | 95.8 µM | 5.2 µM | – | – | –
26 | CCCCC/C=C\C/C=C\CCCCCCCC(=O)Nc1ccccc1 | 97.8 µM | 21 µM | – | – | –
27 | CCCCC/C=C\C/C=C\CCCCCCCC(=O)NC(C)c1ccc(F)cc1 (configuration not stated) | 82.5 µM | 0.78 µM | – | – | –
